In one series the test system is uridine/cytidine kinase. The series can be described thus: Competition assay for substrates of uridine/cytidine kinase, crude extracts of T24 cells. The format is biochemical, human. Here is the method: 2 mM dithiothreitol (DTT) and 0.5 mM phenylmethylsulfanyl fluoride were added just before extraction. The tissue sample was homogenized in a Dounce glass homogenizer and then sonicated for 3 five-second pulses in a Branson Sonifier with a micro-tip at 25 KHz to disrupt the cells. During homogenization and sonication the extract was kept cold throughout the procedures. The tissue extract was then centrifuged at 14,000×g at 4° C. for 15 min., and the supernatant (the crude enzyme extract) was removed. The supernatant was sheared 20 times on ice utilizing a 1 cc syringe with a 27 G½ needle to reduce viscosity. […] 2 mM DTT and 340 μM H4U were added just before the assay. Finally, to the reaction mixture, 5 μl 200 mM creatine phosphate and creatine phosphokinase (0.5 unit/μl) was added to 150 μl of the section mixture. […] H2O bath for 1 minute before 20 μl of the crude enzyme extract was added to initiate the reaction. […] At 0, 30 and 60 minutes the reaction mixture, divided in separate tubes, was heated in a boiling water bath for 2 minutes to terminate the reaction. Denatured protein was then removed by centrifugation of the sample for 2 minutes at 14,000×g. The amount of nucleotide formed was determined by spotting 20 μl aliquots of the reaction mixture onto DE-81 2.2 cm Whatman filter discs. After air drying, the unphosphorylated substrate nucleoside was removed by washing twice for 10 min. in 20 mM ammonium formate and twice for 5 min. in deionized H2O with gentle stirring. A control, lacking the crude enzyme extract was included with each determination. The washed papers were dried under a heat lamp and then placed into individual scintillation vials, eluted for 30 min. in 1 ml of 0.1M HCl-0.1M KCL and then vortexed in 5 ml of scintillation fluid and counted. Enzyme activity was expressed as pmoles/min/mg protein.
When uridine was utilized as substrate, benzacyclouridine was added to prevent the catabolism of the substrate by uridine phosphorylase and tetrahydrouridine was omitted.

In series [1] the test system is PC-3 cells. The series can be described thus: Cytotoxicity (clonogenic) assay, 72 h drug exposure. The format is cell-based, human. Here is the method:
(§1) Toxicity and Radiation Studies: The methods using clonogenic assays described by Perez and Greer (Int. J. Rad. Oncology: Biology, Physics 12, 1523-1527, 1986—incorporated herein by reference in its entirety) were followed.
Cytotoxicity Assays: 5×10^5 cells were plated in 60 mm tissue culture dishes in 5 mls of the optimal growth media for the particular cell line in an humidified 95% air-5% CO2 atmosphere. The plates were incubated for 18-20 hours to allow for attachment and log-phase growth to begin. At the end of this period the growth medium was aspirated and replaced with […]. Four times (4×) concentrated solutions were prepared and then 1 ml was added to the plates; and growth media were then added to a total volume of […]. The plates were then incubated for 72 hours and the cells harvested by trypsinization. The cells were then serially diluted in growth medium replated into 60 mm dishes and incubated for 6 to 9 days depending on the cell line. After this incubation period, the media was aspirated and the colonies were washed twice with a PBS solution. The colonies were then stained with a 0.2% crystal violet-20% ethanol solution for 5 min. the stain was removed, the colonies were washed and air dried. A viable colony was one consisting of 25 or more normal appearing cells and was considered to have arisen from a single cell. The colonies were counted under a dissecting microscope. Two to three dilutions for every condition were plated. Dishes containing 30-300 colonies were used in the calculation and all conditions were done in duplicate.

Series [2] concerns PC-3 cells. The series can be described thus: Radiosensitization of cells in culture (Cobalt 60, clonogenic survival). The format is cell-based, human. Here is the method: as §1
Irradiation of Cells in Culture: 2×10^5 cells were plated in 25 cm^2 flasks and grown for 18 hr at 37° C. in a humidified 5% CO2 atmosphere. The medium was then removed and replaced with medium containing the appropriate drug concentrations and incubated for 72 hrs then removed and the cell monolayers were rinsed twice with PBS. The flasks were then filled with 50 ml of radiation medium (3 parts RPMI 1640 and 7 parts PBS plus antibiotics and glutamine). The cells were then irradiated using a Cobalt 60 irradiator. The cell monolayers were placed 35 cm away from the source and irradiated for appropriate times according to the dose rate. The dose rate was calculated, at this distance, using ionization chambers. Attenuation factors due to the polystyrene flask (0.9923) and the medium (H2O=0.8715) were considered in calculating the exposure period.
After irradiation the cell monolayers were washed again, replenished with growth media, and incubated for 1½ hours. The cell monolayers were then trypsinized and the cells serially diluted, appropriate dilutions were then plated in 60 mm dishes and incubated for 7-9 days at 37° C. and CO2. At the end of this period the cells were stained with crystal violet and the colony forming ability determined by considering 25 or more normal cells as a viable colony. The viabilities were determined and the appropriate survival curves derived. All conditions were done in duplicate using two flasks treated under identical conditions.

A further series addresses T1, cytidine deaminase (CD) (Homo sapiens, UniProt P32320).
T1 construct: Crude extracts of PC-3 cells in culture were prepared as described above; endogenous in cells; host or cells: PC-3 cells (crude extract supernatant)
The series can be described thus: Competition assay for substrates of cytidine deaminase, crude extracts of PC-3 cells. Type of series: biochemical. The settings on record: for substrate for cytidine deaminase (in words): competition studies, human tumor cell extracts; for % Inhibition (CD) / inhibition at 250 µM: competitor 250 μM; for % Inhibition (CD) / inhibition at 250 µM / inhibition: ratio 10, PC-3 extracts. The protocol: The crude enzyme extract (the supernatant of a 10 minute 14,000×g centrifugation) was then added. When cytidine was used as substrate, assays were conducted with benzacyclouridine to inhibit uridine phosphorylases. […] After 0, 15, and 30 minutes, the reaction was stopped and denatured protein removed as above for dC Kinase. […] Aliquots were then spotted on PE cellulose TLC sheets and the reactants separated with a solvent system composed of isopropanol:HCl:H2O (170:41:39). […] The nucleosides were visualized under U.V. light and the spots cut out and counted. […] Enzyme activity was expressed as nmole formed in 30 min/mg/protein.
Competition assays to determine Substrate Specificity: Crude extracts of PC-3 cells in culture were prepared as described above. Two concentrations of crude extract were utilized for the studies as determined from the analysis of protein.
The assays were run for 0, 15, and 30 minutes.

The target of series [3] is deoxycytidine kinase (dCK) (Homo sapiens, UniProt P27707). The series can be described thus: Competition assay for substrates of deoxycytidine kinase, crude extracts of PC-3 cells. The settings on record: read-out: % Inhibition (dCK).
Sequence of deoxycytidine kinase (dCK) (P27707 whole entry): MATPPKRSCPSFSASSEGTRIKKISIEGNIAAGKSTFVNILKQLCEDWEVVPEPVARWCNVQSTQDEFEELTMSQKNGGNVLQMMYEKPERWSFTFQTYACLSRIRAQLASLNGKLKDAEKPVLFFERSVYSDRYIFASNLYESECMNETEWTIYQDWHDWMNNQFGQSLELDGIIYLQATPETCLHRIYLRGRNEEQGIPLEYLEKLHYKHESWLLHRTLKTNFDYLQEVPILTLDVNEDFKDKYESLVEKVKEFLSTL
Setting [4] is: competitor 100 μM, substrate 3H-Uridine 16.7 μM.
The mark [5] stands for this setting: competitor 250 μM, substrate 3H-Uridine 16.7 μM.
Setting [6] is: substrate 3H-Deoxycytidine 25 μM.
The mark [7] stands for this setting: competitor 500 μM, substrate 3H-Cytidine 8.3 μM.
[8] abbreviates: competitor 100 μM, substrate 3H-Cytidine 8.3 μM.
Where [9] appears, read: competitor 250 μM, substrate 3H-Cytidine 8.3 μM.
Setting [10] is: competitor 500 μM, substrate 3H-Uridine 16.7 μM.
Where [11] appears, read: competitor 750 μM, substrate 3H-Uridine 16.7 μM.

Structures are written as SMILES. Read-outs that look alike come from different tables or passages of the source. Marks after values point to notes of the source that are not given here.

T1 sequence (P32320 whole entry): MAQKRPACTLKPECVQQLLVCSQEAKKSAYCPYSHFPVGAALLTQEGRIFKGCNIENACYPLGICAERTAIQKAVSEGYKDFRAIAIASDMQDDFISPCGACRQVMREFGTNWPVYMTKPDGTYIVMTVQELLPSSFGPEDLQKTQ

As to `O=c1[nH]c(=O)n([C@@H]2O[C@H](CO)[C@@H](O)[C@H]2O)cc1F` [5-Fluorouridine], the “% Inhibitation (U/C kinase)” value in the series with uridine/cytidine kinase (setting [4]) came to 56%; in the series with uridine/cytidine kinase (setting [5]) it was 80%.
As for `O=c1[nH]c(=O)n([C@H]2C[C@H](O)[C@@H](CO)O2)cc1I` [IdU, 5-Iododeoxyuridine, reference compound], the “effect of tetrahydrouridine (H4U) on cytotoxicity / viability (in words)” value (shortened to “effect … on cytotoxicity / viability (in words)”) in the series on PC-3 cells [1] was “relative lack of the effect of tetrahydrouridine”. The “effect of tetrahydrouridine (H4U) on radiosensitization (in words)” value in the series with PC-3 cells [2] (cells in culture) was “relative lack of the effect of tetrahydrouridine”.
As for `CNc1nc(=O)n([C@H]2C[C@H](O)[C@@H](CO)O2)cc1Cl` [4-N,methylamino CldC, 4-N, methylamino-5-Chloro-2′-deoxycytidine], at cytidine deaminase (CD), the “substrate for cytidine deaminase (in words)” value is “reasonably good substrate”. Further, the “% Inhibition (CD)” value on cytidine deaminase (CD) (substrate 3H-Cytidine 25 μM) is 13%. Besides, at cytidine deaminase (CD) (setting [6]), the “% Inhibition (CD)” value came to 29%. Also, the “radiosensitization of PC-3 cells (in words)” value in the series on PC-3 cells [2] is “potent radiosensitizing effect”. For the same compound, in the series with PC-3 cells [2] (cells in culture), the “effect of tetrahydrouridine (H4U) on radiosensitization (in words)” value was “antagonism by tetrahydrouridine” and the “effect of thymidine on radiosensitization (in words)” value is reported as “antagonized by thymidine”.
With `Nc1nc(=O)n([C@H]2C[C@H](O)[C@@H](CO)O2)cc1F` [5-Fluorodeoxycytidine, reference compound], the inhibition at 250 µM on cytidine deaminase (CD) (setting [6]) amounted to 50%; in series [3] it was 90%. On cytidine deaminase (CD) (substrate 3H-Cytidine 25 μM), the inhibition worked out at 83%. The “% Inhibitation (U/C kinase)” value in the series with uridine/cytidine kinase (setting [7]) is reported as 4.8%.
With `O=c1ccn([C@@H]2O[C@H](CO)[C@@H](O)[C@H]2O)c(=O)[nH]1` [Uridine], the inhibition at 250 µM at cytidine deaminase (CD) (setting [6]) amounted to 2%; in series [3], 0%. Further, the “% Inhibitation (U/C kinase)” value in the series with uridine/cytidine kinase (setting [8]) is 59%; in the series with uridine/cytidine kinase (setting [4]), 62%; in the series on uridine/cytidine kinase (setting [9]), 75%; in the series with uridine/cytidine kinase (setting [5]), 80%; in the series with uridine/cytidine kinase (setting [7]), 80%; in the series on uridine/cytidine kinase (setting [10]), 87%. The “% Inhibitation (U/C kinase)” value was 86% in the series on uridine/cytidine kinase (competitor 750 μM, substrate 3H-Cytidine 8.3 μM) and 90% in the series with uridine/cytidine kinase (setting [11]).
Regarding `CNc1nc(=O)n([C@H]2C[C@H](O)[C@@H](CO)O2)cc1F` [4-N,methylamino FdC, 4-N, methylamino-5-Fluoro-2′-deoxycytidine], in the series with PC-3 cells [1] (PC-3 cells), the “effect of thymidine on cytotoxicity (in words)” value is given as “antagonized by thymidine”. For the same compound, the “effect … on cytotoxicity / viability (in words)” value with PC-3 cells [1] (PC-3 cells, listed as 4-N, methylamino FdC) is reported as “antagonized by tetrahydrouridine”; with PC-3 cells [1] (PC-3 cells, listed as 4N, methylFdC), “prevented by tetrahydrouridine”. Besides, the “substrate for cytidine deaminase (in words)” value on cytidine deaminase (CD) (listed as 4-N, methylamino FdC) was “poor substrate”; on cytidine deaminase (CD) (listed as 4-N, methylamino-5-Fluoro-2′-deoxycytidine), “moderate to poor substrate”. Also, the “% Inhibition (CD)” value on cytidine deaminase (CD) (substrate 3H-Cytidine 25 μM) turned out to be 0%; at cytidine deaminase (CD) (setting [6]) it was 4.0%.
Turning to `Nc1ccn([C@H]2C[C@H](O)[C@@H](CO)O2)c(=O)n1` [Deoxycytidine], the inhibition at 250 µM on cytidine deaminase (CD) (setting [6]) is 66%. Moreover, the figures for the “% Inhibitation (U/C kinase)” value in the series on uridine/cytidine kinase (setting [9]), with uridine/cytidine kinase (setting [5]) and in the series on uridine/cytidine kinase (setting [7]) were 10%, 0% and 20%, respectively.
Turning to `Nc1nc(=O)n([C@@H]2O[C@H](CO)[C@@H](O)[C@H]2O)cc1F` [5-Fluorocytidine], the “% Inhibitation (U/C kinase)” value in the series with uridine/cytidine kinase (setting [4]) is listed as 34%; with uridine/cytidine kinase (setting [9]), 51%; with uridine/cytidine kinase (setting [5]) it was 58%; with uridine/cytidine kinase (setting [7]), 66%.
Turning to `Cc1cn([C@H]2C[C@H](O)[C@@H](CO)O2)c(=O)nc1N` [5-methyldC, reference compound], the “% Inhibition (CD)” value on cytidine deaminase (CD) (substrate 3H-Cytidine 25 μM) is 30%.
With `O=c1[nH]c(=O)n(COCCO)cc1Cc1ccccc1` [5-Benzacyclouridine], the “% Inhibitation (U/C kinase)” value with uridine/cytidine kinase (competitor 1500 μM, substrate 3H-Cytidine 8.3 μM) is 0%; with uridine/cytidine kinase (competitor 1500 μM, substrate 3H-Uridine 16.7 μM), 7.0%.
As to `O=c1ccn([C@H]2C[C@H](O)[C@@H](CO)O2)c(=O)[nH]1` [Deoxyuridine], the “% Inhibitation (U/C kinase)” value with uridine/cytidine kinase (setting [5]) is given as 0** %.
In the case of `O=c1[nH]c(=O)n([C@H]2C[C@H](O)[C@@H](CO)O2)cc1Cl` [5-Chlorodeoxyuridine], the “% Inhibitation (U/C kinase)” value is reported as 7.0% in the series with uridine/cytidine kinase (competitor 200 μM, substrate 3H-Cytidine 8.3 μM) and 0% with uridine/cytidine kinase (setting [5]).
`Nc1nc(=O)n([C@@H]2O[C@H](CO)[C@@H](O)[C@H]2O)cc1Cl` [5-Chlorocytidine]: the “effect … on cytotoxicity / viability (in words)” value in the series with PC-3 cells [1] (human, 72 h) is “H4U decreases viability”. The “radiosensitization of PC-3 cells (in words)” value with PC-3 cells [2] is “radiosensitization”. Also, the “effect of tetrahydrouridine (H4U) on radiosensitization (in words)” value with PC-3 cells [2] (cells in culture) is given as “decreases radiosensitization”. The “substrate for U/C kinase of T24 cells (in words)” value with uridine/cytidine kinase is listed as “moderate substrates”. The “% Inhibitation (U/C kinase)” value in the series on uridine/cytidine kinase (setting [8]) came to 10%; in the series on uridine/cytidine kinase (setting [4]), 2%; in the series with uridine/cytidine kinase (setting [9]) it was 24%; in the series on uridine/cytidine kinase (setting [5]), 23%.
`Nc1nc(=O)n([C@H]2C[C@H](O)[C@@H](CO)O2)cc1Cl` [5-Chlorodeoxycytidine, 5-chloro-2′-deoxycytidine, reference compound]: the inhibition at 250 µM was 42% at cytidine deaminase (CD) (setting [6]) and 72% in series [3]. Besides, the inhibition on cytidine deaminase (CD) (substrate 3H-Cytidine 25 μM) stood at 80%. Also, the entries for the “% Inhibitation (U/C kinase)” value with uridine/cytidine kinase (setting [5]) and in the series on uridine/cytidine kinase (setting [7]) were 0% and 5.1%, respectively.
Take `Nc1ccn([C@@H]2O[C@H](CO)[C@@H](O)[C@H]2O)c(=O)n1` [Cytidine]: the “% Inhibitation (U/C kinase)” value in the series with uridine/cytidine kinase (setting [8]) is on record as 66%; with uridine/cytidine kinase (setting [4]) it was 57%; in the series on uridine/cytidine kinase (setting [9]), 85%; with uridine/cytidine kinase (setting [5]), 89%; in the series on uridine/cytidine kinase (setting [7]), 88%; in the series with uridine/cytidine kinase (setting [10]), 90%. The “% Inhibitation (U/C kinase)” value with uridine/cytidine kinase (setting [11]) is reported as 96%.

As usually defined, the inhibition is how much of the control response was suppressed.

The values are drawn from patent US8252768B2, “Designer therapy of pancreatic tumors” (University of Miami, priority 2006, dated 2012).
